Measured values from US11154514B2, “Quinic acid-modified nanoparticles and uses thereof” (Purdue Research Foundation, priority 2017, dated 2021).

Experiments:
E-selectin = target: T1, E-selectin (Homo sapiens, UniProt P16581); assay: Competitive inhibition of QANP binding to activated HUVECs; format: cell-based; details: pre-incubated 30 minutes, flow cytometry
T1 construct: TNF-α treatment induces the expression of E-selectin on HUVECs; endogenous in cells
T1 sequence (P16581 22-610): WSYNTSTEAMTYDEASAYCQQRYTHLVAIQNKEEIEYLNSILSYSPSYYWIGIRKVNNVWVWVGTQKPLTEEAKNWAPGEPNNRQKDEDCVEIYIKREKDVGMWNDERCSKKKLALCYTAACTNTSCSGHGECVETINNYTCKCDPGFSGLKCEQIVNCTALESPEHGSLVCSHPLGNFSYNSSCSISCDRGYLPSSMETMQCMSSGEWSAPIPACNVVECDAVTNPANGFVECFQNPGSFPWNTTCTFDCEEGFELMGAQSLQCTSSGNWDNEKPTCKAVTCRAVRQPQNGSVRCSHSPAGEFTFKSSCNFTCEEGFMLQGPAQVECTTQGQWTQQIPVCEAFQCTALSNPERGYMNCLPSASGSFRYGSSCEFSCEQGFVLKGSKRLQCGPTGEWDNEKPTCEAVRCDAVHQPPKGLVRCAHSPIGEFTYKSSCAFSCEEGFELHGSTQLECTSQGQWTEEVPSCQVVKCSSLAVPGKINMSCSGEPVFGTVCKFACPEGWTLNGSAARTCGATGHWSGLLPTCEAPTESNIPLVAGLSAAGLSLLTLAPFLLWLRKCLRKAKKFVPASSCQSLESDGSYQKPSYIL
Protocol: For flow cytometry, HUVECs were treated with NPs in the same way as above and gently washed with PBS twice to remove free or loosely bound NPs. The cells were then trypsinized, collected by centrifugation at 930×g for 5 minutes, resuspended in 0.2 mL of PBS at 0° C., and analyzed with an Accuri C6 flow cytometer (BD Biosciences, San Jose, Calif., USA) equipped with an FL-1 detector (λex/λem=488/525 nm). For competition assay, known concentrations of free QA-NH2 or E-selectin antibody were pre-incubated with HUVECs for 30 minutes, prior to the NP treatment and flow cytometry.

[1] = tested on: subcutaneous MDA-MB-231 tumor xenografts; assay: In vivo whole body imaging and ex vivo organ distribution; set-up: species or system female athymic nude mice; details: tail vein, imaged over 24 hours
Protocol: All animal procedures were approved by the Purdue Animal Care and Use Committee, in compliance with the NIH guidelines for the care and use of laboratory animals. Female athymic nude mice ([…]) at the age of 6-7 weeks were purchased from Envigo (Indianapolis, Ind., USA) and acclimatized for 1 week prior to the procedure. Each mouse received 5×10^6 MDA-MB-231 cells in the flank of hind leg by subcutaneous injection. […] […] After 48 hours, mice were sacrificed, and tumors and major organs were retrieved and imaged with IVIS Lumina system. To quantify ICG content in each organ, tumor and major organs were homogenized in DMSO with a Tissue Master homogenizer (Omni International, Kennesaw, Ga., USA). The organ homogenates were centrifuged, and 0.1 mL supernatant was sampled from each homogenate and analyzed with the IVIS Lumina system.

**Q.** With Nc1cc(NC(=O)[C@]2(O)C[C@@H](O)[C@@H](O)[C@H](O)C2)cc(C(=O)O)c1 [QA-NH2, 3-amino-5-((1 S,3R,4S,5R)-1,3,4,5-tetrahydroxycyclohexane-1-carboxamido)benzoic Acid] as the compound, how does the “QANP binding to the activated HUVECs in presence of competitor” value (E-selectin) read?
**A.** reduced

**Q.** How did the “tumor fluorescence (whole body imaging)” value [1] turn out when CC1(C)C(/C=C/C=C/C=C/C=C2\N(CCCCS(=O)(=O)O)c3ccc4ccccc4c3C2(C)C)=[N+](CCCCS(=O)(=O)[O-])c2ccc3ccccc3c21 [free ICG, indocyanine green] was run?
**A.** did not show fluorescence in tumors at all time points

**Q.** And the “whole body distribution and clearance” value [1]?
**A.** gradually cleared by hepatobiliary elimination
